# In patent US9273057B2 (Bristol-Myers Squibb Company, priority 2012, dated 2016):
# Where two headings read alike, the source gives them in different places.
# Molecular target: CK2A1 (CK2α/β) (Homo sapiens, UniProt P68400)
# Assay: CK2 kinase assay, CK2A1 (CK2α/β)
# Format: biochemical
# Conditions: Table A
# [1] = read-out: CK2A1 (CK2α/β) (IC50)
# Experimental: For example, in vitro protein kinase assays may be conducted with a relevant purified protein kinase and an appropriate synthetic substrate to determine the inhibitory activity of the compounds. […] Reaction mixtures were incubated at 30° C. for 1 hour, and reaction products were captured by binding to phosphocellulose (P81) filter plates. Incorporation of radioactive phosphate into the peptide substrate was determined by liquid scintillation counting.
# The inhibitory activity of the instant compounds may also be measured by recombinant CK2 holoenzyme kinase assays. The assays were performed in U-bottom 384-well plates. […] The reaction was initiated by the combination of bacterially expressed, CK2 α/β or CK2 holoenzyme with substrates and test compounds. The reaction was incubated at room temperature for 60 minutes and terminated by adding 30 μl of 35 mM EDTA to each sample. The reaction mixture was analyzed on the Caliper LABCHIP® 3000 (Caliper, Hopkinton, Mass.) by electrophoretic separation of the fluorescent substrate and phosphorylated product. […] Compounds were dissolved at 10 mM in dimethylsulfoxide (DMSO) and evaluated at eleven concentrations. IC50 values were derived by non-linear regression analysis.
# CK2A1 (CK2α/β), sequence (P68400 whole entry, species assumed): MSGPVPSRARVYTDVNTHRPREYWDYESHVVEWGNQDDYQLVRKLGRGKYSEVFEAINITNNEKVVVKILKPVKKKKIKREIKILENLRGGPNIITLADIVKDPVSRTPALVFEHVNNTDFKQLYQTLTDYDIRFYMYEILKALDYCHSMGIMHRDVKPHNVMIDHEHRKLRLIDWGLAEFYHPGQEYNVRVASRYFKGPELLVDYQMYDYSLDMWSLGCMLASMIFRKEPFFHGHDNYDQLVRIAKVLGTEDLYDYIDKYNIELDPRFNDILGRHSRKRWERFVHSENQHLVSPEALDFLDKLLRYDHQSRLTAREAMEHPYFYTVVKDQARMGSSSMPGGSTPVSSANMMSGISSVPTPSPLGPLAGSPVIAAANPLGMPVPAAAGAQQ
# CK2A1 (CK2α/β), sequence (P67870 whole entry partner, species assumed): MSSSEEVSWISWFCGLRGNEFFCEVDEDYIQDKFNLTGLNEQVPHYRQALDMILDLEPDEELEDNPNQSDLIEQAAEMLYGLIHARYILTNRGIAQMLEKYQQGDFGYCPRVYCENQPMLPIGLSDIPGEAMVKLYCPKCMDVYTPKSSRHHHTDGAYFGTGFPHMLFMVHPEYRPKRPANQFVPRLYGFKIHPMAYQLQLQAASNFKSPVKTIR
Structure (SMILES),IC50 [1],"IC50 (CK2A1 (CK2α/β) (IC50, nM))"
"CCNc1nc(Nc2cc(C#N)cc(N3C[C@@H](C)[C@@H](NC(=O)OC)C3)c2Cl)nn2c(C#N)cnc12 [Example 335, methyl ((3R,4R)-1-(2-chloro-5-cyano-3-((7-cyano-4-(ethylamino)imidazo[2,1-f][1,2,4]triazin-2-yl)amino)phenyl)-4-methyl-3-pyrrolidinyl)carbamate]",3.97 nM,
"CCNc1nc(Nc2cc(C#N)cc(N3CC[C@@H](NC(=O)OC)[C@H](OP(=O)(O)O)C3)c2Cl)nn2c(C#N)cnc12 [Example 337, methyl ((3R,4R)-1-(2-chloro-5-cyano-3-((7-cyano-4-(ethylamino)imidazo[2,1-f][1,2,4]triazin-2-yl)amino)phenyl)-3-(phosphonooxy)piperidin-4-yl)carbamate]",16 nM,
"CCNc1nc(Nc2cc(C#N)cc(N3CC[C@H](NC(=O)OC)[C@@H](OP(=O)(O)O)C3)c2Cl)nn2c(C#N)cnc12 [Example 338, methyl ((3S,4S)-1-(2-chloro-5-cyano-3-((7-cyano-4-(ethylamino)imidazo[2,1-f][1,2,4]triazin-2-yl)amino)phenyl)-3-(phosphonooxy)-4-piperidinyl)carbamate]",0.82 nM,
"CCNc1nc(Nc2cc(C#N)cc(N3CC[C@@H](NC(=O)OC)[C@H](OC(=O)[C@H](C)OP(=O)(O)O)C3)c2Cl)nn2c(C#N)cnc12 [Example 340, (S)-(3R,4R)-1-(2-chloro-5-cyano-3-((7-cyano-4-(ethylamino)imidazo[2,1-f][1,2,4]triazin-2-yl)amino)phenyl)-4-((methoxycarbonyl)amino)piperidin-3-yl 2-(phosphonooxy)propanoate]",6 nM,
"CCNc1nc(Nc2cc(C#N)cc(N3CC[C@@H](NC(=O)OC)[C@H](OC(=O)[C@H](C)O)C3)c2Cl)nn2c(C#N)cnc12 [Example 341, (S)-(3R,4R)-1-(2-chloro-5-cyano-3-((7-cyano-4-(ethylamino)imidazo[2,1-f][1,2,4]triazin-2-yl)amino)phenyl)-4-((methoxycarbonyl)amino)piperidin-3-yl 2-hydroxypropanoate]",1 nM,
"CCNc1nc(Nc2cc(C#N)cc(N3CC[C@@H](NC(=O)OC)[C@H](OC(=O)[C@@H](C)OP(=O)(O)O)C3)c2Cl)nn2c(C#N)cnc12 [Example 342, (R)-(3R,4R)-1-(2-chloro-5-cyano-3-((7-cyano-4-(ethylamino)imidazo[2,1-f][1,2,4]triazin-2-yl)amino)phenyl)-4-((methoxycarbonyl)amino)piperidin-3-yl 2-(phosphonooxy)propanoate]",0.37 nM,
"CCNc1nc(Nc2cc(C#N)cc(N3CC[C@@H](NC(=O)OC)[C@H](OC(=O)CCCOP(=O)(O)O)C3)c2Cl)nn2c(C#N)cnc12 [Example 343, (3R,4R)-1-(2-chloro-5-cyano-3-((7-cyano-4-(ethylamino)imidazo[2,1-f][1,2,4]triazin-2-yl)amino)phenyl)-4-((methoxycarbonyl)amino)piperidin-3-yl 4-(phosphonooxy)butanoate]",3 nM,
"CCNc1nc(Nc2cc(C#N)cc(N3CC[C@@H](NC(=O)OC)[C@H](OC(=O)Cc4ccc(OP(=O)(O)O)cc4)C3)c2Cl)nn2c(C#N)cnc12 [Example 344, (3R,4R)-1-(2-chloro-5-cyano-3-((7-cyano-4-(ethylamino)imidazo[2,1-f][1,2,4]triazin-2-yl)amino)phenyl)-4-((methoxycarbonyl)amino)piperidin-3-yl 2-(4-(phosphonooxy)phenyl)acetate]",,3 nM
"CCNc1nc(Nc2cc(C#N)cc(N3CC[C@@H](NC(=O)OC)[C@H](OCOP(=O)(O)O)C3)c2Cl)nn2c(C#N)cnc12 [Example 345, sodium (((3R,4R)-1-(2-chloro-5-cyano-3-((7-cyano-4-(ethylamino)imidazo[2,1-f][1,2,4]triazin-2-yl)amino)phenyl)-4-((methoxycarbonyl)amino)piperidin-3-yl)oxy)methyl phosphate]",0.8 nM,
